ChEMBL document CHEMBL1149511, “Tri-substituted triazoles as potent non-nucleoside inhibitors of the HIV-1 reverse transcriptase” (Bioorg Med Chem Lett, 2006)

Assays:
Format in all cases: functional, cell-based
HeLa [1] = assay: Antiviral activity against wild type HIV1 in HeLa-JC53 cells; conditions: Homo sapiens
HeLa [2] = assay: Antiviral activity against HIV1 K103N-Y181C mutant in HeLa-JC53 cells
HeLa [3] = assay: Antiviral activity against HIV1 Y188L mutant in HeLa-JC53 cells

Row | SMILES | EC50 (HeLa [1]) [nM] | EC50 (HeLa [2]) [nM] | EC50 (HeLa [3]) [nM]
1 | Cc1ccc(-n2c(C)nnc2SCC(=O)Nc2ccc(Oc3ccccc3)cc2)cc1 | 1100 | > 10000 | 
2 | Cc1ccc(NC(=O)CSc2nnc(C)n2-c2cccc3cccnc23)c(Cl)c1 | 8 |  | 5700
3 | Cc1ccc(-n2c(C)nnc2SCC(=O)Nc2cccc(Cl)c2)cc1 | > 10000 | > 10000 | 
4 | CSc1ccccc1NC(=O)CSc1nnc(C)n1-c1ccc(C)cc1 | 0.6 | 120 | 
5 | COc1ccc(-n2c(C)nnc2SCC(=O)Nc2ccc(C)cc2Cl)c2ccccc12 | 1 |  | 240
6 | Cc1ccc(-n2c(C)nnc2SCC(=O)Nc2ccccc2Br)cc1 | 0.4 | 76 | 
7 | Cc1ccc2cc(Cl)cc(-n3c(C)nnc3SCC(=O)Nc3ccc(S(N)(=O)=O)cc3Cl)c2n1 | 2 |  | 100
8 | Cc1ccc(-n2c(SCC(=O)Nc3ccc(C)cc3Br)nnc2C(C)C)cc1 |  | > 10000 | 
9 | CCc1ccc(-n2c(C)nnc2SCC(=O)Nc2ccc(C)cc2Cl)cc1 | 0.2 | 60 | 
10 | Cc1ccc(NC(=O)CSc2nnc(C)n2-c2cccc(C(F)(F)F)c2)c(Cl)c1 | > 600 |  | 
11 | Cc1nnc(SCC(=O)Nc2ccccc2Br)n1-c1ccc(Cl)c2ccccc12 | 0.8 | 130 | 200
12 | NS(=O)(=O)c1ccc(NC(=O)CSc2nnc(C(F)(F)F)n2-c2cccc3ccccc23)c(Cl)c1 | 0.5 |  | 49
13 | Cc1ccc2ccccc2c1-n1c(C)nnc1SCC(=O)Nc1ccccc1Br | 1 | 65 | 210
14 | Cc1ccc(NC(=O)CSc2nnc(C)n2-c2cc(C)c(C)c3ccccc23)c(Cl)c1 | 1 |  | 160
15 | Cc1nnc(SCC(=O)Nc2ccccc2Br)n1-c1ccc(N(C)C)c2ccccc12 | 0.4 |  | 240
16 | Cc1ccc(NC(=O)CSc2nnc(C)n2-c2ccccc2Cl)c(Cl)c1 | 8 | 100 | 
17 | Cc1ccc(-n2c(C)nnc2SCC(=O)Nc2ccc(C)cc2Br)cc1 | 0.4 | 100 | 
18 | Cc1ccc(-n2c(C)nnc2SCC(=O)Nc2ccc(C(C)C)cc2Br)cc1 | 140 | > 10000 | 
19 | Cc1ccc(-n2c(SCC(=O)Nc3ccc(S(N)(=O)=O)cc3Cl)nnc2C(F)(F)F)c2ccccc12 | 0.4 |  | 25
20 | Cc1ccc(NC(=O)CSc2nnc(C)n2-c2c(C)cc(C)c3ccccc23)c(Cl)c1 | 1 |  | 90
21 | Cc1ccc2c(C)ccc(-n3c(SCC(=O)Nc4ccc(S(N)(=O)=O)cc4Cl)nnc3C(F)(F)F)c2c1 | 6 |  | 35

Row | SMILES | EC50 (HeLa [1]) [nM] | EC50 (HeLa [2]) [nM] | EC50 (HeLa [3]) [nM]
22 | Cc1ccc(-n2c(O)nnc2SCC(=O)Nc2ccc(C)cc2Br)cc1 |  | > 10000 | 
23 | O=C1Nc2ccc(Cl)cc2[C@@](C#CC2CC2)(C(F)(F)F)O1 [EFAVIRENZ] | 0.4 | 11 | 73
24 | Cc1ccc(NC(=O)CSc2nnc(C)n2-c2ccc(F)cc2)c(Cl)c1 | 2300 | > 10000 | 
25 | Cc1ccc(-n2c(C)nnc2SCC(=O)Nc2cc(Cl)ccc2Cl)cc1 | 100 |  | 
26 | COCc1nnc(SCC(=O)Nc2ccc(C)cc2Br)n1-c1ccc(C)cc1 |  | > 10000 | 
27 | Cc1ccc(-n2c(C)nnc2SCC(=O)Nc2ccccc2Cl)cc1 | 0.7 | 150 | 
28 | Cc1ccc(-n2c(C)nnc2SCC(=O)Nc2cccc(C)c2C)cc1 | 60 | > 10000 | 
29 | Cc1ccc(NC(=O)CSc2nnc(C)n2-c2cccc(Cl)c2)c(Cl)c1 | 260 |  | 
30 | COC(=O)c1ccc(NC(=O)CSc2nnc(C)n2-c2ccc(C)cc2)c(Cl)c1 | 0.4 | 120 | 
31 | Cc1ccc(-n2c(C)nnc2SCC(=O)Nc2ccc(C)cc2Cl)c(C)c1 | 0.1 | 60 | 
32 | Cc1cc2c(C)cccc2c(-n2c(C)nnc2SCC(=O)Nc2ccccc2Br)c1C | 0.8 |  | 160
33 | Cc1ccc(-n2c(C)nnc2SCC(=O)Nc2ccccc2Br)c2ccccc12 | 0.6 | 14 | 69
34 | Cc1nnc(SCC(=O)Nc2ccccc2Br)n1-c1cccc2ccccc12 | 2 |  | 720
35 | Cc1ccc(-n2c(SCC(=O)Nc3ccc(C)cc3Br)nnc2C2CC2)cc1 |  | > 10000 | 
36 | Cc1ccc2cccc(C)c2c1-n1c(C)nnc1SCC(=O)Nc1ccccc1Br | 1 |  | 480
37 | CCc1ccc(-n2c(C)nnc2SCC(=O)Nc2ccc(C)cc2Cl)c2ccccc12 | 1 | 32 | 110
38 | Cc1cc(C)c2ccccc2c1-n1c(C)nnc1SCC(=O)Nc1ccccc1Br | 1 | 70 | 89
39 | Cc1ccc2cccc(-n3c(SCC(=O)Nc4ccc(S(N)(=O)=O)cc4Cl)nnc3C(F)(F)F)c2n1 | 0.6 |  | 22
40 | CCc1nnc(SCC(=O)Nc2ccc(C)cc2Br)n1-c1ccc(C)cc1 | 0.1 | 2500 | 
41 | Cc1nnc(SCC(=O)Nc2ccc(S(N)(=O)=O)cc2Cl)n1-c1ccc(N(C)C)c2ccccc12 | 0.5 |  | 88
42 | COc1ccc(-n2c(C)nnc2SCC(=O)Nc2ccc(S(N)(=O)=O)cc2Cl)c2ccccc12 | 0.7 |  | 110

Row | SMILES | EC50 (HeLa [1]) [nM] | EC50 (HeLa [2]) [nM] | EC50 (HeLa [3]) [nM]
43 | Cc1nnc(SCC(=O)Nc2ccc(S(N)(=O)=O)cc2Cl)n1-c1cccc2ccccc12 | 0.5 |  | 190
44 | Cc1nnc(SCC(=O)Nc2ccc(S(N)(=O)=O)cc2Cl)n1-c1cc(Br)cc2cccnc12 | 0.8 |  | 190
45 | CCc1ccc(-n2c(C)nnc2SCC(=O)Nc2ccccc2Br)c2ccccc12 | 0.5 | 22 | 58
46 | Cc1ccc(-n2c(C)nnc2SCC(=O)Nc2ccc(Cl)cc2Cl)cc1 | 5 |  | 
47 | Cc1ccc(-n2c(SCC(=O)Nc3ccc(C)cc3Br)nnc2C(F)(F)F)cc1 | 0.5 | 1100 | 
48 | Cc1nnc(SCC(=O)Nc2ccccc2Br)n1-c1cccc2cccnc12 | 7 |  | 4200
49 | NS(=O)(=O)c1ccc(NC(=O)CSc2nnc(C(F)(F)F)n2-c2cccc3cccnc23)c(Cl)c1 | 2 |  | 180
50 | Cc1ccc(-n2c(C)nnc2SCC(=O)Nc2cccc(Cl)c2Cl)cc1 | 0.1 | 110 | 
51 | Cc1ccc(-n2c(C)nnc2SCC(=O)Nc2ccc(Cl)cc2)cc1 | 400 | > 10000 | 
52 | Cc1ccc(-n2c(C)nnc2SCC(=O)Nc2ccc(OC(F)(F)F)cc2Br)cc1 | 58 | > 10000 | 
53 | Cc1ccc(NC(=O)CSc2nnc(C)n2-c2ccc(C)c3ccccc23)c(Cl)c1 | 1 | 16 | 100
54 | Cc1ccc(NC(=O)CSc2nnc(C)n2-c2ccc(Cl)c3ccccc23)c(Cl)c1 | 1 | 190 | 320
55 | Cc1ccc(NC(=O)CSc2nnc(C)n2-c2ccc(C(F)(F)F)cc2)c(Cl)c1 | 19 | 230 | 
56 | Cc1cc(-n2c(C)nnc2SCC(=O)Nc2ccccc2Br)c2ccccc2c1C | 0.5 | 31 | 97
57 | Cc1ccc(NC(=O)CSc2nnc(C)n2-c2ccccc2)c(Br)c1 | 100 | 1300 | > 10000
58 | Cc1cccc(-n2c(C)nnc2SCC(=O)Nc2ccc(C)cc2Cl)c1 | 110 |  | 
59 | Cc1ccc(-n2c(C)nnc2SCC(=O)Nc2ccccc2-c2ccccc2)cc1 | > 10000 | > 10000 | 
60 | Cc1ccc2c(C)ccc(-n3c(C)nnc3SCC(=O)Nc3ccc(S(N)(=O)=O)cc3Cl)c2n1 | 0.6 |  | 15
61 | Cc1nnc(SCC(=O)Nc2ccc(S(N)(=O)=O)cc2Cl)n1-c1ccc(Cl)c2ccccc12 | 1 |  | 68
62 | Cc1ccc(-n2c(C)nnc2SCC(=O)Nc2ccccc2I)cc1 | 0.5 | 220 | 
63 | Cc1ccc(-n2c(C)nnc2SCC(=O)Nc2ccc(S(N)(=O)=O)cc2Cl)c2ccccc12 | 0.2 |  | 20

Row | SMILES | EC50 (HeLa [1]) [nM] | EC50 (HeLa [2]) [nM] | EC50 (HeLa [3]) [nM]
64 | CNCc1nnc(SCC(=O)Nc2ccc(C)cc2Br)n1-c1ccc(C)cc1 |  | > 10000 | 
65 | COc1ccc(-n2c(SCC(=O)Nc3ccc(S(N)(=O)=O)cc3Cl)nnc2C(F)(F)F)c2ccccc12 | 0.4 |  | 14
66 | COc1cc(-n2c(C)nnc2SCC(=O)Nc2ccc(S(N)(=O)=O)cc2Cl)c2ncccc2c1 | 0.8 |  | 370
67 | Cc1ccc2c(C)cccc2c1-n1c(C)nnc1SCC(=O)Nc1ccccc1Br | 0.3 |  | 330
68 | Cc1ccc2cccc(-n3c(C)nnc3SCC(=O)Nc3ccc(S(N)(=O)=O)cc3Cl)c2n1 | 1 |  | 390
69 | Cc1ccc2c(C)cc(C)c(-n3c(C)nnc3SCC(=O)Nc3ccc(S(N)(=O)=O)cc3Cl)c2n1 | 0.7 |  | 11
70 | Cc1ccc(-n2c(C)nnc2SCC(=O)Nc2ccccc2C(F)(F)F)cc1 | 7 | > 10000 | 
71 | Cc1nnc(SCC(=O)Nc2ccc(S(N)(=O)=O)cc2Cl)n1-c1cccc2cccnc12 | 4 |  | 2400
72 | CSCc1nnc(SCC(=O)Nc2ccc(C)cc2Br)n1-c1ccc(C)cc1 |  | > 10000 | 
73 | Cc1ccc2ccc(C)c(-n3c(SCC(=O)Nc4ccc(S(N)(=O)=O)cc4Cl)nnc3C(F)(F)F)c2c1 | 3 |  | 26
74 | Cc1ccc(-n2c(C)nnc2SCC(=O)Nc2ccc(C)cc2Cl)cc1 | 0.9 | 170 | 
75 | NS(=O)(=O)c1ccc(NC(=O)CSc2nnc(C(F)(F)F)n2-c2ccc(Cl)c3ccccc23)c(Cl)c1 | 4 |  | 41
76 | Cc1ccc(-n2cnnc2SCC(=O)Nc2ccc(C)cc2Br)cc1 | 70 | > 10000 | 
77 | Cc1cc2c(C)ccc(-n3c(C)nnc3SCC(=O)Nc3ccccc3Br)c2cc1C | 1 |  | 110
78 | Cc1cc2cccc(C)c2c(-n2c(C)nnc2SCC(=O)Nc2ccccc2Br)c1C | 3 |  | 200
79 | Cc1ccc(-n2c(CO)nnc2SCC(=O)Nc2ccc(C)cc2Br)cc1 |  | > 10000 | 
80 | Cc1ccc2c(C)ccc(-n3c(C)nnc3SCC(=O)Nc3ccccc3Br)c2c1 | 0.3 |  | 12
81 | Cc1ccc(-n2c(C)nnc2SCC(=O)Nc2ccc(C#N)cc2Cl)cc1 | 3 | 900 | 
82 | Cc1ccc2c(-n3c(C)nnc3SCC(=O)Nc3ccccc3Br)ccc(C)c2c1 | 0.5 |  | 150
